Data published in PubChem BioAssay AID1259407 (Chemical Carcinogenesis Research Information System (CCRIS), 2018).
The source made the active and inactive calls. How the calls were made is not given here.

Tested on: CCRIS mutagenicity, Ames/micronucleus/aberration tests
Test: CCRIS mutagenicity studies
[1] = Test System: AMES SALMONELLA TYPHIMURIUM, Strain/Indicator: TA1537, Metabolic Activation: NONE, Method: PREINCUBATION

ClC(Cl)(Cl)Cl
mutagenic call (End Point: IN VITRO CHROMOSOMAL ABERRATIONS, Test System: CHO-LB CELLS, Metabolic Activation: NONE): inactive; negative | mutagenic call (End Point: IN VITRO CHROMOSOMAL ABERRATIONS, Test System: CHO-LB CELLS, Metabolic Activation: RAT, LIVER, S-9, AROCLOR 1254): inactive; negative | mutagenic call (End Point: IN VIVO MICRONUCLEUS, Test System: BONE MARROW POLYCHROMATIC ERYTHROCYTES, Species: MOUSE, Strain/Sex: MALE, Route: IP INJECTION): active; positive | mutagenic call (End Point: In vitro chromosomal aberrations, Test System: Chinese hamster lung (CHL/IU) cells, Metabolic Activation: Rat, Liver, S9, Phenobarbital and 5,6-benzoflavone): inactive; negative | mutagenic call (Test System: AMES SALMONELLA TYPHIMURIUM, Strain/Indicator: TA97, Metabolic Activation: HAMSTER, LIVER, S-9, AROCLOR 1254 (10%), Method: PREINCUBATION): inactive; negative | mutagenic call (Test System: AMES SALMONELLA TYPHIMURIUM, Strain/Indicator: TA97, Metabolic Activation: HAMSTER, LIVER, S-9, AROCLOR 1254 (30%), Method: PREINCUBATION): inactive; negative | mutagenic call (Test System: AMES SALMONELLA TYPHIMURIUM, Strain/Indicator: TA97, Metabolic Activation: NONE, Method: PREINCUBATION): inactive; negative | mutagenic call (Test System: AMES SALMONELLA TYPHIMURIUM, Strain/Indicator: TA97, Metabolic Activation: NONE, Method: STANDARD PLATE): inactive; negative | mutagenic call (Test System: AMES SALMONELLA TYPHIMURIUM, Strain/Indicator: TA97, Metabolic Activation: RAT, LIVER, S-9, AROCLOR 1254 (10%), Method: PREINCUBATION): inactive; negative | mutagenic call (Test System: AMES SALMONELLA TYPHIMURIUM, Strain/Indicator: TA97, Metabolic Activation: RAT, LIVER, S-9, AROCLOR 1254 (30%), Method: PREINCUBATION): inactive; negative | mutagenic call (Test System: AMES SALMONELLA TYPHIMURIUM, Strain/Indicator: TA97, Metabolic Activation: RAT, LIVER, S-9, AROCLOR 1254, Method: STANDARD PLATE): inactive; negative | mutagenic call (Test System: AMES SALMONELLA TYPHIMURIUM, Strain/Indicator: TA98, Metabolic Activation: HAMSTER, LIVER, S-9, AROCLOR 1254 (10%), Method: PREINCUBATION): inactive; negative | mutagenic call (Test System: AMES SALMONELLA TYPHIMURIUM, Strain/Indicator: TA98, Metabolic Activation: HAMSTER, LIVER, S-9, AROCLOR 1254 (30%), Method: PREINCUBATION): inactive; negative | mutagenic call (Test System: AMES SALMONELLA TYPHIMURIUM, Strain/Indicator: TA98, Metabolic Activation: NONE, Method: GAS EXPOSURE): active; positive | mutagenic call (Test System: AMES SALMONELLA TYPHIMURIUM, Strain/Indicator: TA98, Metabolic Activation: NONE, Method: PREINCUBATION): inactive; negative | mutagenic call (Test System: AMES SALMONELLA TYPHIMURIUM, Strain/Indicator: TA98, Metabolic Activation: RAT LIVER S-9, PHENOBARBITOL AND 5,6-BENZOFLAVONE, Method: GAS EXPOSURE): inactive; negative | mutagenic call (Test System: AMES SALMONELLA TYPHIMURIUM, Strain/Indicator: TA98, Metabolic Activation: RAT, LIVER, S-9, AROCLOR 1254 (10%), Method: PREINCUBATION): inactive; negative | mutagenic call (Test System: AMES SALMONELLA TYPHIMURIUM, Strain/Indicator: TA98, Metabolic Activation: RAT, LIVER, S-9, AROCLOR 1254 (30%), Method: PREINCUBATION): inactive; negative | mutagenic call (Test System: AMES SALMONELLA TYPHIMURIUM, Strain/Indicator: TA98, Metabolic Activation: RAT, LIVER, S-9, AROCLOR 1254, Method: STANDARD PLATE): inactive; negative | mutagenic call (Test System: AMES SALMONELLA TYPHIMURIUM, Strain/Indicator: TA100, Metabolic Activation: HAMSTER, LIVER, S-9, AROCLOR 1254 (10%), Method: PREINCUBATION): inactive; negative | mutagenic call (Test System: AMES SALMONELLA TYPHIMURIUM, Strain/Indicator: TA100, Metabolic Activation: HAMSTER, LIVER, S-9, AROCLOR 1254 (30%), Method: PREINCUBATION): inactive; negative | mutagenic call (Test System: AMES SALMONELLA TYPHIMURIUM, Strain/Indicator: TA100, Metabolic Activation: NONE, Method: PREINCUBATION): inactive; negative | mutagenic call (Test System: AMES SALMONELLA TYPHIMURIUM, Strain/Indicator: TA100, Metabolic Activation: RAT, LIVER, S-9, AROCLOR 1254 (10%), Method: PREINCUBATION): inactive; negative | mutagenic call (Test System: AMES SALMONELLA TYPHIMURIUM, Strain/Indicator: TA100, Metabolic Activation: RAT, LIVER, S-9, AROCLOR 1254 (30%), Method: PREINCUBATION): inactive; negative | mutagenic call (Test System: AMES SALMONELLA TYPHIMURIUM, Strain/Indicator: TA1535, Metabolic Activation: HAMSTER, LIVER, S-9, AROCLOR 1254 (10%), Method: PREINCUBATION): inactive; negative | mutagenic call (Test System: AMES SALMONELLA TYPHIMURIUM, Strain/Indicator: TA1535, Metabolic Activation: HAMSTER, LIVER, S-9, AROCLOR 1254 (30%), Method: PREINCUBATION): inactive; negative | mutagenic call (Test System: AMES SALMONELLA TYPHIMURIUM, Strain/Indicator: TA1535, Metabolic Activation: NONE, Method: PREINCUBATION): inactive; negative | mutagenic call (Test System: AMES SALMONELLA TYPHIMURIUM, Strain/Indicator: TA1535, Metabolic Activation: NONE, Method: STANDARD PLATE): inactive; negative | mutagenic call (Test System: AMES SALMONELLA TYPHIMURIUM, Strain/Indicator: TA1535, Metabolic Activation: RAT, LIVER, S-9, AROCLOR 1254 (10%), Method: PREINCUBATION): inactive; negative | mutagenic call (Test System: AMES SALMONELLA TYPHIMURIUM, Strain/Indicator: TA1535, Metabolic Activation: RAT, LIVER, S-9, AROCLOR 1254 (30%), Method: PREINCUBATION): inactive; negative | mutagenic call (Test System: AMES SALMONELLA TYPHIMURIUM, Strain/Indicator: TA1535, Metabolic Activation: RAT, LIVER, S-9, AROCLOR 1254, Method: STANDARD PLATE): active; positive | mutagenic call (Test System: AMES SALMONELLA TYPHIMURIUM, Strain/Indicator: TA1537, Metabolic Activation: HAMSTER, LIVER, S-9, AROCLOR 1254 (10 OR 30%), Method: PREINCUBATION): inactive; negative | mutagenic call [1]: inactive; negative | mutagenic call (Test System: AMES SALMONELLA TYPHIMURIUM, Strain/Indicator: TA1537, Metabolic Activation: NONE, Method: STANDARD PLATE): active; positive | mutagenic call (Test System: AMES SALMONELLA TYPHIMURIUM, Strain/Indicator: TA1537, Metabolic Activation: RAT, LIVER, S-9, AROCLOR 1254 (10 OR 30%), Method: PREINCUBATION): inactive; negative | mutagenic call (Test System: Ames Salmonella typhimurium, Strain/Indicator: TA98, Metabolic Activation: None, Method: Gas exposure method): active; positive | mutagenic call (Test System: Ames Salmonella typhimurium, Strain/Indicator: TA98, Metabolic Activation: Rat, Liver, S9, Sodium phenobarbital and 5,6-benzoflavone (10%), Method: Gas exposure method): inactive; negative | mutagenic call (Test System: Ames Salmonella typhimurium, Strain/Indicator: TA100, Metabolic Activation: None, Method: Gas exposure method): inactive; negative | mutagenic call (Test System: Ames Salmonella typhimurium, Strain/Indicator: TA100, Metabolic Activation: Rat, Liver, S9, Sodium phenobarbital and 5,6-benzoflavone (10%), Method: Gas exposure method): inactive; negative | mutagenic call (Test System: Ames Salmonella typhimurium, Strain/Indicator: TA1535, Metabolic Activation: None, Method: Gas exposure method): inactive; negative | mutagenic call (Test System: Ames Salmonella typhimurium, Strain/Indicator: TA1535, Metabolic Activation: Rat, Liver, S9, Sodium phenobarbital and 5,6-benzoflavone (10%), Method: Gas exposure method): inactive; negative | mutagenic call (Test System: Ames Salmonella typhimurium, Strain/Indicator: TA1537, Metabolic Activation: None, Method: Gas exposure method): inactive; negative | mutagenic call (Test System: Ames Salmonella typhimurium, Strain/Indicator: TA1537, Metabolic Activation: Rat, Liver, S9, Sodium phenobarbital and 5,6-benzoflavone (10%), Method: Gas exposure method): inactive; negative | mutagenic call (Test System: E. COLI, Strain/Indicator: WP2UVRA/PKM101, Metabolic Activation: NONE, Method: GAS EXPOSURE): active; positive | mutagenic call (Test System: E. COLI, Strain/Indicator: WP2UVRA/PKM101, Metabolic Activation: RAT LIVER S-9, PHENOBARBITOL AND 5,6-BENZOFLAVONE, GLUTATHIONE-SUPPLEMENTED, Method: GAS EXPOSURE): active; positive | mutagenic call (Test System: E. COLI, Strain/Indicator: WP2UVRA/PKM101, Metabolic Activation: RAT LIVER S-9, PHENOBARBITOL AND 5,6-BENZOFLAVONE, Method: GAS EXPOSURE): active; positive | mutagenic call (Test System: MOUSE LYMPHOMA, Strain/Indicator: L5178Y (TK+/TK-), Metabolic Activation: RAT, LIVER, S-9, AROCLOR 1254, Method: SUSPENSION/PLATE): inactive; negative | mutagenic call (Test System: UDS RAT HEPATOCYTES, Strain/Indicator: BROMODEOXYURIDINE INCORP, Metabolic Activation: NONE, Method: FLOW CYTOMETRIC ANALYSIS): inactive; negative | mutagenic call (Test System: UDS RAT HEPATOCYTES, Strain/Indicator: THY INCORP, Metabolic Activation: NONE, Method: AUTORADIOGRAPHY): inactive; negative

Nc1c2ccccc2nc2ccc(Br)cc12
mutagenic call [1]: active; positive

O=[N+]([O-])c1cc2[nH]c3ccc4ccccc4c3c2c2cc(O)ccc12
mutagenic call (Test System: AMES SALMONELLA TYPHIMURIUM, Strain/Indicator: TA98, Metabolic Activation: NONE, Method: STANDARD PLATE): inactive; negative | mutagenic call (Test System: AMES SALMONELLA TYPHIMURIUM, Strain/Indicator: TA98, Metabolic Activation: RAT, LIVER, S-9, 3-METHYLCHOLANTHRENE, Method: STANDARD PLATE): active; positive | mutagenic call (Test System: AMES SALMONELLA TYPHIMURIUM, Strain/Indicator: TA100, Metabolic Activation: NONE, Method: STANDARD PLATE): active; positive | mutagenic call (Test System: AMES SALMONELLA TYPHIMURIUM, Strain/Indicator: TA100, Metabolic Activation: RAT, LIVER, S-9, 3-METHYLCHOLANTHRENE, Method: STANDARD PLATE): active; positive
